Format in all cases: functional
One experiment relates to T47D. As to the kind of experiment: Growth inhibition of human T47D cells at 1 x 10^-5 M after 24 hrs by MTT assay relative to control. The following applies: read-out: GI.
In the next experiment the test system is NCI-H522. As to the kind of experiment: Growth inhibition of human NCI-H522 cells at 1 x 10^-5 M after 24 hrs by MTT assay relative to control. Conditions: NCI-H522, 24 h, read-out: GI.
For a further experiment, the system named is HCT-15. As to the kind of experiment: Growth inhibition of human HCT15 cells at 1 x 10^-5 M after 24 hrs by MTT assay relative to control. Conditions: HCT-15, 24 h, read-out: GI.
The test system of another experiment is PA-1. Description: Growth inhibition of human PA1 cells at 1 x 10^-5 M after 24 hrs by MTT assay relative to control. The following applies: PA-1, 24 h, read-out: GI.
Another experiment concerns HepG2. Description: Growth inhibition of human HepG2 cells at 1 x 10^-5 M after 24 hrs by MTT assay relative to control. Conditions: HepG2, 24 h, read-out: GI.

The structures appear in SMILES notation.

For `CC(CN1C(=O)c2nc[nH]c2C1=O)N1C(=O)c2nc[nH]c2C1=O` (stereo not given), the inhibition of growth at 10 µM in the experiment with T47D amounted to 32%; in the experiment on NCI-H522, 3%; in the experiment with HCT-15, 30%; in the experiment with PA-1, 20%; with HepG2, 36%.
In the case of `O=C1Cc2ccccc2C(=O)N1CCCN1CCN(CCCN2C(=O)Cc3ccccc3C2=O)CC1`, the inhibition of growth at 10 µM was 5% in the experiment on T47D; 6% with NCI-H522; 1% in the experiment with HCT-15; 0% with PA-1; 7% in the experiment with HepG2.
For `O=C1CNCC(=O)N1CCCN1C(=O)CNCC1=O`, the inhibition of growth at 10 µM came out at 31% in the experiment with T47D; 30% with NCI-H522; 2% in the experiment with HCT-15; 19% in the experiment on PA-1; 35% with HepG2.
On to `O=C1c2nccnc2C(=O)N1CCCN1C(=O)c2nccnc2C1=O`, for which the inhibition of growth at 10 µM was 13% in the experiment on T47D; 0% in the experiment with NCI-H522; 5% in the experiment with HCT-15; 16% in the experiment with PA-1; 1% in the experiment on HepG2.
For `CC(CN1C(=O)Cc2ccccc2C1=O)N1C(=O)Cc2ccccc2C1=O` (stereo not given) the same measures were 26%, 16%, 11%, 3% and 21%.
Consider `O=C1Cc2ccccc2C(=O)N1CCCC1OCC2(CO1)COC(CCCN1C(=O)Cc3ccccc3C1=O)OC2` (stereo not given), for which the inhibition of growth at 10 µM in the experiment on T47D was 1%; in the experiment with NCI-H522, 0%; in the experiment on HCT-15, 12%; in the experiment with PA-1, 0%; in the experiment with HepG2, 5%.
Consider `O=C1CNCC(=O)N1CCCC1OCC2(CO1)COC(CCCN1C(=O)CNCC1=O)OC2` (stereo not given), for which the inhibition of growth at 10 µM in the experiment with T47D is 31%; in the experiment on NCI-H522 it was 25%; in the experiment with HCT-15, 21%; in the experiment with PA-1 it was 12%; in the experiment with HepG2, 37%.
Turning to `O=C1CNCC(=O)N1CCOCCOCCN1C(=O)CNCC1=O`, the inhibition of growth at 10 µM in the experiment with T47D turned out to be 1%; in the experiment with NCI-H522 it was 3%; in the experiment with HCT-15, 0%; in the experiment with PA-1, 0%; with HepG2, 0%.
As to `O=C1C2CC=CCC2C(=O)N1CCCC1OCC2(CO1)COC(CCCN1C(=O)C3CC=CCC3C1=O)OC2` (stereo not given), the inhibition of growth at 10 µM in the experiment on T47D turned out to be 39%; in the experiment with NCI-H522 it was 19%; with HCT-15, 11%; with PA-1, 7%; in the experiment on HepG2 it was 25%.
Consider `O=C1c2nccnc2C(=O)N1CCCN1CCN(CCCN2C(=O)c3nccnc3C2=O)CC1`, for which the inhibition of growth at 10 µM in the experiment on T47D came out at 15%; in the experiment on NCI-H522 it was 19%; in the experiment on HCT-15, 10%; in the experiment on PA-1, 18%; in the experiment with HepG2, 20%.
As for `O=C1c2nc[nH]c2C(=O)N1CCOCCOCCN1C(=O)c2nc[nH]c2C1=O`, the inhibition of growth at 10 µM with T47D was determined as 37%; with NCI-H522, 32%; with HCT-15, 27%; in the experiment with PA-1, 19%; in the experiment on HepG2, 49%.
For `O=C1Cc2ccccc2C(=O)N1CCOCCOCCN1C(=O)Cc2ccccc2C1=O`, the inhibition of growth at 10 µM in the experiment with T47D worked out at 1%; with NCI-H522 it was 5%; in the experiment on HCT-15, 0%; in the experiment on PA-1 it was 0%; in the experiment on HepG2, 1%.
As to `O=C1c2nccnc2C(=O)N1CCN1C(=O)c2nccnc2C1=O`, the inhibition of growth at 10 µM in the experiment with T47D turned out to be 11%; in the experiment on NCI-H522, 30%; in the experiment on HCT-15 it was 39%; in the experiment with PA-1, 4%; in the experiment with HepG2, 7%.
For `CC(CN1C(=O)CNCC1=O)N1C(=O)CNCC1=O` (stereo not given) the same measures were 20%, 16%, 12%, 3% and 22%.
`CC(CN1C(=O)c2nccnc2C1=O)N1C(=O)c2nccnc2C1=O` (stereo not given): the inhibition of growth at 10 µM in the experiment with T47D came to 6%; in the experiment on NCI-H522, 4%; in the experiment with HCT-15, 21%; with PA-1, 1%; with HepG2, 1%.
For `O=C1Cc2ccccc2C(=O)N1CCN1C(=O)Cc2ccccc2C1=O`, the inhibition of growth at 10 µM was 8% with T47D; 16% in the experiment on NCI-H522; 6% in the experiment with HCT-15; 9% in the experiment with PA-1; 4% in the experiment with HepG2.
As to `O=C1c2nc[nH]c2C(=O)N1CCCN1C(=O)c2nc[nH]c2C1=O`, the inhibition of growth at 10 µM was determined as 35% in the experiment with T47D; 10% in the experiment with NCI-H522; 21% in the experiment with HCT-15; 17% in the experiment on PA-1; 34% in the experiment on HepG2.
For `O=C1CNCC(=O)N1CCCN1CCN(CCCN2C(=O)CNCC2=O)CC1` the same measures were 24%, 19%, 14%, 29% and 21%.
For `O=C1Cc2ccccc2C(=O)N1CCCN1C(=O)Cc2ccccc2C1=O` the same measures were 11%, 1%, 7%, 15% and 5%.
For `O=C1c2nc[nH]c2C(=O)N1CCCC1OCC2(CO1)COC(CCCN1C(=O)c3nc[nH]c3C1=O)OC2` (stereo not given) the same measures were 19%, 27%, 11%, 15% and 31%.
`O=C1c2nc[nH]c2C(=O)N1CCCN1CCN(CCCN2C(=O)c3nc[nH]c3C2=O)CC1`: the inhibition of growth at 10 µM came out at 0% in the experiment on T47D; 2% in the experiment with NCI-H522; 0% in the experiment with HCT-15; 0% with PA-1; 1% with HepG2.
Consider `O=C1CNCC(=O)N1CCN1C(=O)CNCC1=O`, for which the inhibition of growth at 10 µM in the experiment with T47D came to 38%; in the experiment with NCI-H522, 30%; with HCT-15, 30%; in the experiment with PA-1, 20%; in the experiment on HepG2, 15%.
As for `O=C1c2nccnc2C(=O)N1CCOCCOCCN1C(=O)c2nccnc2C1=O`, the inhibition of growth at 10 µM was 39% in the experiment with T47D; 35% in the experiment with NCI-H522; 47% in the experiment with HCT-15; 38% in the experiment with PA-1; 6% in the experiment with HepG2.

For the origin of these results see ChEMBL document CHEMBL4041541, “Solvent free, catalyst free, microwave or grinding assisted synthesis of bis-cyclic imide derivatives and their evaluation for anticancer activity” (Bioorg Med Chem Lett, 2017).
